Test results published in publication PMC9026148, “Pre-Clinical Study Evaluating Novel Protein Phosphatase 2A Activators as Therapeutics for Neuroblastoma” (Cancers, 2022).

Experiments:
SK-N-BE(2) cells = experiment: CellTiter 96 proliferation, SK-N-BE(2); assay type: cell-based; conditions: Homo sapiens, SKNBE2, 24 h
Description: CellTiter 96® Aqueous One Solution Cell Proliferation assay (Promega, Madison, WI, USA) was used to examine proliferation, and alamarBlue® assay (Thermo Fisher Scientific, Inc.) was used to evaluate viability. Cells, concentrations ranging from 5 × 10^3 to 1.5 × 10^4, depending on cell type due to wide variation in growth characteristics between established cell lines and PDX cells, were plated in 96-well plates and treated with increasing doses of 792 or 1154 for 24 h. CellTiter 96® or alamarBlue® dye (10 µL) was added for proliferation and viability assays, respectively. A microplate reader (Epoch Microplate Spectrophotometer, BioTek Instruments, Winooski, VT) measured absorbance at 490 nm for CellTiter 96® and at 570 nm for alamarBlue®, using 600 nm as a reference. […] Experiments were completed with at least three biologic replicates, and data reported as fold change ± SEM. […]
Supplemental Table S1: Neuroblastoma cells had the highest sensitivity to 792 and 1154.
(A) SK-N-AS and (B) SK-N-BE(2) cells (1.5 x 104) were plated in 96-well plates and treated with increasing doses of nine PP2A activating compounds for 24 hours. Compounds 792 and 1154 had the lowest LD50s of the nine compounds investigated in both cell lines.
Supplemental Figure S4: SK-N-AS cells were treated with FTY720 (0, 5 μM), 792 (10 μM), or 1154 (10 μM) for 24 hours and PP2A activity was measured. […]

PP2A [1] = experiment: PP2A immunoprecipitation phosphatase assay in SK-N-AS cells; assay type: cell-based, human; conditions: 24 h; for PP2A activation compared with FTY720: 10 μM vs FTY720 5 μM, p ≤ 0.01; for PP2A activation (percent PP2A activity): 10 μM, control 100 ± 0%
Description: SK-N-AS cells (1 × 10^6) were treated with FTY720 (5 μM), 792 (10 μM), or 1154 (10 μM) for 24 h and lysed using HEPES (AC215001000, Thermo Fisher Scientific Inc.), MgCl2 (MX0045-4, EM Science, Gibbstown, NJ, USA), KCl (02-003-741, Thermo Fisher Scientific Inc.), PMSF (Sigma Aldrich), dithiothreitol (EC-601, National Diagnostics, Atlanta, GA, USA), and Igepal CA-630 ([…], Sigma Aldrich) for 20 min on ice. Cell lysates were centrifuged at 17,000 rpm for 30 min at 4 °C. The commercially available PP2A Immunoprecipitation Phosphatase Assay Kit (17-313, EMD Millipore) has been used by other investigators to directly measure PP2A activity and was utilized per manufacturer's protocol to evaluate the activity of PP2A following treatment and compared to untreated cells. Experiments were completed at least in triplicate, and data reported as mean fold change ± standard error of the mean (SEM).

SH-EP cells = experiment: Cell cycle analysis by flow cytometry (PI), SH-EP; assay type: cell-based, human; conditions: 24 h; for Mean % G1 (± SEM) / Mean % G2 (± SEM) / Mean % S (± SEM) / percentage of cells in the S phase / percentage of cells in G1: SH-EP, 15 μM; for percentage of cells in the S phase: untreated 30.9 ± 2.1; for percentage of cells in G1: untreated 42.6 ± 2.4
Description: To evaluate cell cycle, cells (1 × 10^6) were plated and maintained in respective media with reduced FBS (4%) for cell synchronization. […] Cells were washed with phosphate-buffered saline (PBS) and fixed at 4 °C for 30 min with 100% ethanol. Following a second PBS wash, cells were stained with propidium iodide (PI, Invitrogen, Waltham, MA, USA), RNAse A (0.1 mg/mL, Qiagen, Germantown, MD, USA), and 0.1% TritonX (Active Motif, Carlsbad, CA, USA), and FACSCalibur^TM Flow Cytometer (BD Biosciences, Franklin Lakes, NJ, USA) was used for examination. FlowJo software (FlowJo, LLC, Ashland, OR, USA) was used for data analysis. Data reported as mean percentage cells in phase ± SEM.

PP2A [2] = molecular target: T1, PP2A (Homo sapiens, UniProt P30153+P67775); experiment: PP2A immunoprecipitation phosphatase assay in SH-EP cells; assay type: cell-based; conditions: 24 h, 10 μM in text (15 μM in Figure 2 legend), control 100 ± 0%
T1 construct: host or cells: SH-EP

CIP2A = experiment: Immunoblotting of CIP2A in neuroblastoma cells; assay type: cell-based, human; conditions: increasing concentrations, 24 h; all cell lines except WAC2 and COA129 treated with 792
Description: Following treatment, cells were lysed on ice using radioimmunoprecipitation (RIPA) buffer with phosphatase inhibitors (P5726, Sigma Aldrich), protease inhibitors (P8340, Sigma Aldrich), and phenylmethanesulfonylfluoride (PMSF, P7626, Sigma Aldrich) for 60 min. Cell lysates were centrifuged at 17,000 rpm for 30 min at 4 °C. Pierce™ BCA Protein Assay (Thermo Fisher Scientific, Inc.) determined protein concentration and proteins were separated by electrophoresis on sodium dodecyl sulfate polyacrylamide (SDS-PAGE) gels. Expected size of the targeted proteins was confirmed using molecular weight markers (Precision Plus Protein Kaleidoscope, Bio-Rad, Hercules, CA, USA). […] Immunoblots were developed with Luminata Classico or Crescendo Western horseradish peroxidase substrate (EMD Millipore, Burlington, MA, USA). Either anti-vinculin or anti-β-actin (as available from manufacturer) served as an internal loading control. We performed densitometry of Western blots using ImageJ software (Ver 1.49, http://imagej.nih.gov/ij (accessed on 9 February 2022).

T1 sequence (P67775 whole entry): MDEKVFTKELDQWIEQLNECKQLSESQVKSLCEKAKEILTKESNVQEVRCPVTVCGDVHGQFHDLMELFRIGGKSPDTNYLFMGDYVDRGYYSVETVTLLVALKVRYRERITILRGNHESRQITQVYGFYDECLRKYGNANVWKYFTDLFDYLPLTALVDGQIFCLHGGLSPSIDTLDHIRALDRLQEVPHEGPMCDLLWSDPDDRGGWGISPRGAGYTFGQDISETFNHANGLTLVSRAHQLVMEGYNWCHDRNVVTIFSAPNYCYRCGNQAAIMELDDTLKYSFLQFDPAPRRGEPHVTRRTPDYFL
T1 sequence (P30153 2-589 limits assumed): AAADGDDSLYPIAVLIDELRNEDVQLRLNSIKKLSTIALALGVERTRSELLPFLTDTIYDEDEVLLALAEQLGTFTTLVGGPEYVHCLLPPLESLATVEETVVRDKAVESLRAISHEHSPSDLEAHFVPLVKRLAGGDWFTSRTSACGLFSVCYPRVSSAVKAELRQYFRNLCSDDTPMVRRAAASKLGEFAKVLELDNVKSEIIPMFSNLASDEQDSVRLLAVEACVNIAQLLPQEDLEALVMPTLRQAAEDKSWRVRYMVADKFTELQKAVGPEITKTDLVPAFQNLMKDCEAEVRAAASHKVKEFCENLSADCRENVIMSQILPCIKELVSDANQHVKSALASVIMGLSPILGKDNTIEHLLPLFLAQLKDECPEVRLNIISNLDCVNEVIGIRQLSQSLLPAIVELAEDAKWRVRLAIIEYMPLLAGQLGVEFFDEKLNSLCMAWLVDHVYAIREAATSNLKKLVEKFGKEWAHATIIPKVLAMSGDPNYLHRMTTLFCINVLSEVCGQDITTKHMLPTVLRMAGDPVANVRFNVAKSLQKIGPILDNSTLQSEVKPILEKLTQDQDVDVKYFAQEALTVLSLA

| SMILES | IC50 (SK-N-BE(2) cells) | PP2A activation compared with FTY720 (PP2A [1]) | PP2A activation (percent PP2A activity) (PP2A [1]) | Mean % G1 (± SEM) (SH-EP cells) | Mean % G2 (± SEM) (SH-EP cells) | Mean % S (± SEM) (SH-EP cells) | percentage of cells in the S phase (SH-EP cells) | percentage of cells in G1 (SH-EP cells) | PP2A activation (percent PP2A activity) (PP2A [2]) | expression of CIP2A (CIP2A) | percent of cells in subG1 (SH-EP cells; SH-EP cells) |
| --- | --- | --- | --- | --- | --- | --- | --- | --- | --- | --- | --- |
| O=S(=O)(NC1CCCC(N2c3ccccc3CCc3ccccc32)C1O)c1ccc(OC(F)(F)F)cc1 (stereo not drawn) [DBK-1154] | 23.8 µM | significantly more than FTY720 | 134.8 ± 18.4% | 52.0 (± 2.2) % | 14.6 (± 4.9) % | 26.3 (± 2.0) % | 26.3 ± 2% | 52 ± 2.2% | 138.0 ± 16.5% | decreased |  |
| O=S(=O)(N[C@H]1COC[C@@H](n2c3ccc(Cl)cc3c3cc(Cl)ccc32)[C@@H]1O)c1ccc(OC(F)(F)F)cc1 [ATUX-792] | 17.2 µM | significantly more than FTY720 | 117.5 ± 5.6% | 58.4 (± 2.3) % | 12.1 (± 2.6) % | 21.0 (± 1.4) % | 21 ± 1.4% | 58.4 ± 2.3% | 117.3 ± 7.2% | decreased | significant increase in the percent of cells in subG1 |
